Each structure is given as a SMILES string.

Our source for the EC50 values is patent publication US9682999B2, “Benzofuran compounds for the treatment of hepatitis C virus infections” (Glaxo Group Limited, priority 2011, dated 2017).

Assay [1] relates to sub-genomic HCV NS3-NS5B replicon genotype 1b C316N (Huh-7 cells). Briefly: Replicon luciferase cell based assay, genotype 1b C316N. The note with it: Hepatitis C virus, Huh-7, 48 h, read-out: EC50 1b 316N. As for the experimental part: (§1) 150 μL of a 1 mM stock solution in DMSO of each test compound was transferred into in the first column of a 96 well, V-bottom microplate, to give 200 times the top concentration of the required dilution series. Aliquots of 50 μL were added to each well of the remaining rows containing 100 μL of DMSO giving a 1:3 dilution series over ten points. Columns 11 and 12 contained DMSO only for the positive and negative control, respectively. 10 μL of each well were transferred into 90 μL of DMEM medium (Invitrogen #41965-039) supplemented with 5% v/v foetal calf serum, 1% v/v non-essential amino acids solution, 100 units/ml penicillin, 100 μg/ml streptomycin and 2 mM L-glutamine to give 20 times the top concentration of the required dilution series.
(§2) Suspensions were prepared from cultures of Huh-7 cells stably transfected with sub-genomic HCV NS3-NS5B replicons of either genotype 1b (the ET subline described by Pietschmann, T., Lohmann, V., Kaul, A., Krieger, N., Rinck, G., Rutter, G., Strand, D. & Bartenschlager, R., Journal of Virology, 2002, 76, 4008-4021), genotype 1a (subline 1.19 constructed in-house from H77 SG-Neo containing adaptive mutations P1496L and S2204I as described by Blight, K. J., McKeating, J. A., Marcotrigiano, J., and Rice, C. M. Journal of Virology, 2003, 77, 3180-3190), genotype 1b C316N (constructed in-house by site directed mutagenesis of the NS5B gene of the ET subline), or genotype 1a C316Y (constructed in-house by site directed mutagenesis of the NS5B gene of H77 SG-Neo containing adaptive mutations P1496L and S2204I as described by Blight, K. J., McKeating, J. A., Marcotrigiano, J., and Rice, C. M. Journal of Virology, 2003, 77, 3180-3190) linked to a firefly luciferase reporter gene. Monolayers nearing confluency were stripped from growth flasks with versene-trypsin solution and the cells re-suspended in assay medium comprising DMEM. 95 μL of suspension containing either 15,000 cells (genotype 1b luciferase replicon) or 20,000 cells (genotype 1a luciferase replicon) were added to all wells of a 96 well plate (Perkin Elmer, #6005686), except medium controls in column 12 of the assay plate. The cell suspension was dosed with 5 μL of compound solution and the plate was incubated for 48 hours at 37° C. in a 5% CO2 atmosphere.
(§3) For toxicity the cells in one plate were treated with Cell Titer Glo (Promega, #G7573). A solution of Cell Titer Glo was prepared according to the manufacturer's instructions, and 100 μL added to each well. The plate was then read for luminescence on an Envision. For potency a solution of Steady Glo (Promega, #E2550) was prepared according to the manufacturer's instructions and 100 μL added to each well. After a twenty minute incubation the plate was then read for luminescence on an Envision.
(§4) Potency: The luminescence values from all compound-free wells containing cells were averaged to obtain a positive control value. The mean luminescence value from the compound-free wells that had received no cells was used to provide the negative (background) control value. The readings from the wells at each compound concentration were taken and after the subtraction of the mean background from all values, were expressed as a percentage of the positive control signal. The quantifiable and specific reduction of luciferase signal in the presence of a drug is a direct measure of replicon inhibition. BioAssay Enterprise (CamebridgeSoft) with the XC50 module for curve fitting was used to plot the curve of percentage inhibition against compound concentration and derive the 50% inhibitory concentration (EC50) for the compound. EC50 is the effective concentration, that is, the concentration of compound where 50% maximal effect is observed. The EC50 values of two identical plates were averaged. The results are presented in Table 1 as EC50 for genotypes (GT) 1a, 1b, 1b 316N and 1a 316Y.
A general note: Replicon systems follow genome replication, usually without infectious particles.

For assay [2], the system named is sub-genomic HCV NS3-NS5B replicon genotype 1b (Huh-7 cells). Briefly: Replicon luciferase cell based assay, genotype 1b. As to conditions: Hepatitis C virus; Huh-7 genotype 1b luciferase replicon, 48 hours; read-out: EC50 GT1b. As for the experimental part: as §1, §2, §3, §4
In assay [3] the test system is sub-genomic HCV NS3-NS5B replicon genotype 1a C316Y (Huh-7 cells). The assay is described as follows: Replicon luciferase cell based assay, genotype 1a C316Y. The note with it: Hepatitis C virus, Huh-7, 48 h, read-out: EC50 1a 316Y. The method, then: as §1, §2, §3, §4
For assay [4], the system named is sub-genomic HCV NS3-NS5B replicon genotype 1a (Huh-7 cells). The assay is described as follows: Replicon luciferase cell based assay, genotype 1a. As to conditions: Hepatitis C virus; Huh-7 genotype 1a luciferase replicon, 48 hours; read-out: EC50 GT 1a. As for the experimental part: as §1, §2, §3, §4

As to `CNC(=O)c1c(-c2ccc(F)cc2)oc2cc(N(c3ccc(B(O)O)c(C(F)(F)F)c3)S(C)(=O)=O)c(C3CC3)cc12` [Example 10, (4-(N-(5-cyclopropyl-2-(4-fluorophenyl)-3-(methylcarbamoyl)benzofuran-6-yl)methylsulfonamido)-2-(trifluoromethyl)phenyl)boronic acid], the EC50 (usually the concentration giving half of the maximal effect) in assay [1] is 0.001 to 0.01 µM; in assay [2], 0.001 to 0.01 µM; in assay [3] it was 0.011 to 0.2 µM; in assay [4] it was 0.001 to 0.01 µM.

`CNC(=O)c1c(-c2ccc(F)cc2)oc2cc(N(c3ccc(B(O)O)c(C#N)c3)S(C)(=O)=O)c(C3CC3)cc12` [Example 12, (2-cyano-4-(N-(5-cyclopropyl-2-(4-fluorophenyl)-3-(methylcarbamoyl)benzofuran-6-yl)methylsulfonamido)phenyl)boronic acid]: the EC50 in assay [1] is 0.001 to 0.01 µM; in assay [2], 0.001 to 0.01 µM; in assay [3], 0.011 to 0.2 µM; in assay [4], 0.001 to 0.01 µM.

With `CS(=O)(=O)N(c1ccc(B(O)O)c(Cl)c1)c1cc2oc(-c3ccc(Cl)cc3)c(C(N)=O)c2cc1C1CC1` [Example 14, (4-(N-(3-carbamoyl-2-(4-chlorophenyl)-5-cyclopropylbenzofuran-6-yl)methylsulfonamido)-2-chlorophenyl)boronic acid], the EC50 in assay [1] was 0.001 to 0.01 µM; in assay [2], 0.001 to 0.01 µM; in assay [3], 0.011 to 0.2 µM; in assay [4], 0.001 to 0.01 µM.

`CNC(=O)c1c(-c2ccc(F)cc2)oc2cc(N(c3ccc(B(O)O)c(S(C)(=O)=O)c3)S(C)(=O)=O)c(C3CC3)cc12` [Example 16, (4-(N-(5-cyclopropyl-2-(4-fluorophenyl)-3-(methylcarbamoyl)benzofuran-6-yl)methylsulfonamido)-2-(methylsulfonyl)phenyl)boronic acid]: the EC50 in assay [1] was in the range of 0.011 to 0.2 µM; in assay [2] it was 0.001 to 0.01 µM; in assay [3], 0.011 to 0.2 µM; in assay [4], 0.001 to 0.01 µM.

On to `CNC(=O)c1c(-c2ccc(F)cc2)oc2cc(N(c3ccc(OCB(O)O)c(Cl)c3)S(C)(=O)=O)c(C3CC3)cc12` [Example 19, ((2-Chloro-4-(N-(5-cyclopropyl-2-(4-fluorophenyl)-3-(methylcarbamoyl)benzofuran-6-yl)methylsulfonamido)phenoxy)methyl)boronic acid], for which the EC50 in assay [1], in assay [2], in assay [3] and in assay [4] was 0.001 to 0.01 µM each time.

Consider `CNC(=O)c1c(-c2ccc(F)cc2)oc2cc(N(c3ccc4c(c3)COB4O)S(C)(=O)=O)c(C3CC3)cc12` [Example 20, 5-Cyclopropyl-2-(4-fluorophenyl)-6-(N-(1-hydroxy-1,3-dihydrobenzo[c][1,2]oxaborol-5-yl)methylsulfonamido)-N-methylbenzofuran-3-carboxamide], for which the EC50 in assay [1] lay in the range of 0.001 to 0.01 µM; in assay [2], 0.001 to 0.01 µM; in assay [3], 0.011 to 0.2 µM; in assay [4] it was 0.001 to 0.01 µM.

`CNC(=O)c1c(-c2ccc(Cl)cc2)oc2cc(N(c3ccc(B(O)O)c(C#N)c3)S(C)(=O)=O)c(C3CC3)cc12` [Example 21, (4-(N-(2-(4-Chlorophenyl)-5-cyclopropyl-3-(methylcarbamoyl)benzofuran-6-yl)methylsulfonamido)-2-cyanophenyl)boronic acid]: the EC50 in assay [1], in assay [2], in assay [3] and in assay [4] was 0.001 to 0.01 µM in each case.

With `CNC(=O)c1c(-c2ccc(F)cc2)oc2cc(N(c3ccc(B4OC(C)(C)C(C)(C)O4)c(C)c3)S(C)(=O)=O)c(C3CC3)cc12` [Example 22, 5-Cyclopropyl-2-(4-fluorophenyl)-N-methyl-6-(N-(3-methyl-4-(4,4,5,5-tetramethyl-1,3,2-dioxaborolan-2-yl)phenyl)methylsulfonamido)benzofuran-3-carboxamide], the EC50 is 0.001 to 0.01 µM in assay [1], 0.001 to 0.01 µM in assay [2], 0.2 to 1 µM in assay [3] and 0.001 to 0.01 µM in assay [4].

Consider `CNC(=O)c1c(-c2ccc(F)cc2)oc2cc(N(c3ccc(CCB(O)O)c(Cl)c3)S(C)(=O)=O)c(C3CC3)cc12` [Example 23, (2-Chloro-4-(N-(5-cyclopropyl-2-(4-fluorophenyl)-3-(methylcarbamoyl)benzofuran-6-yl)methylsulfonamido)phenethyl)boronic acid], for which the EC50 in assay [1] was 0.011 to 0.2 µM; in assay [2], 0.001 to 0.01 µM; in assay [3], 0.011 to 0.2 µM; in assay [4], 0.001 to 0.01 µM.

For `CNC(=O)c1c(-c2ccc(F)cc2)oc2cc(N(c3cc(F)c4c(c3)COB4O)S(C)(=O)=O)c(C3CC3)cc12` [Example 24, 5-Cyclopropyl-6-(N-(7-fluoro-1-hydroxy-1,3-dihydrobenzo[c][1,2]oxaborol-5-yl)methylsulfonamido)-2-(4-fluorophenyl)-N-methylbenzofuran-3-carboxamide], the EC50 in assay [1] fell in the range of 0.001 to 0.01 µM; in assay [2], 0.001 to 0.01 µM; in assay [3], 0.011 to 0.2 µM; in assay [4], 0.001 to 0.01 µM.

As to `CNC(=O)c1c(-c2ccc(F)cc2)oc2cc(N(c3ccc(C4COB(O)C4)c(Cl)c3)S(C)(=O)=O)c(C3CC3)cc12` (stereo not shown) [Example 25, 6-(N-(3-Chloro-4-(2-hydroxy-1,2-oxaborolan-4-yl)phenyl)methylsulfonamido)-5-cyclopropyl-2-(4-fluorophenyl)-N-methylbenzofuran-3-carboxamide], the EC50 in assay [1] lay within 0.011 to 0.2 µM; in assay [2], 0.001 to 0.01 µM; in assay [3], 0.011 to 0.2 µM; in assay [4] it was 0.001 to 0.01 µM.

In the case of `CNC(=O)c1c(-c2ccc(F)cc2)oc2cc(N(c3cccc(CCB(O)O)c3)S(C)(=O)=O)c(C3CC3)cc12` [Example 26, (3-(N-(5-Cyclopropyl-2-(4-fluorophenyl)-3-(methylcarbamoyl)benzofuran-6-yl)methylsulfonamido)phenethyl)boronic acid], the EC50 in assay [1] fell in the range of 0.011 to 0.2 µM; in assay [2] it was 0.001 to 0.01 µM; in assay [3] it was 0.2 to 1 µM; in assay [4] it was 0.001 to 0.01 µM.

With `CNC(=O)c1c(-c2ccc(F)cc2)oc2cc(N(c3ccc(C4CCB(O)O4)c(Cl)c3)S(C)(=O)=O)c(C3CC3)cc12` (stereo not shown) [Example 27, 6-(N-(3-Chloro-4-(2-hydroxy-1,2-oxaborolan-5-yl)phenyl)methylsulfonamido)-5-cyclopropyl-2-(4-fluorophenyl)-N-methylbenzofuran-3-carboxamide], the EC50 was 0.011 to 0.2 µM in assay [1], 0.001 to 0.01 µM in assay [2], 0.011 to 0.2 µM in assay [3] and 0.001 to 0.01 µM in assay [4].
